Laboratory results reported in patent publication US9056087B2, “Methods of healing or preventing inflammation, damage and other changes that occur prior to, during or immediately after a myocardial event with thymosin beta 4, analogues, isoforms and other derivatives” (REGENERX BIOPHARMACEUTICALS, INC., priority 2001, dated 2015).

Test system: cardiac endothelial cells
Assay: collagen gel assay: transformation of cardiac endothelial cells to mesenchymal cells
Format: cell-based
Details: at physiological concentrations (Tβ4)
Protocol: Synthetic Tβ4 and an antibody to Tβ4 was provided by RegeneRx Biopharmaceuticals, Inc. (3 Bethesda Metro Center, Suite 700, Bethesda, Md. 20814) and were tested in a collagen gel assay to determine their effects on the Transformation of cardiac endothelial cells to mesenchymal cells. It is Well established that development of heart valves and other cardiac tissue are formed by epithelial-mesenchymal transformation and that defects in this process can cause serious cardiovascular malformation and injury during development and throughout life. […] Transformation of atrioventricular endocardium into invasive mesenchyme is critical in the formation and maintenance of normal cardiac tissue and in the formation of heart valves.

Substance: Thymosin β4 (SDKPDMAEIEKFDKSKLKKTETQEKNPLPSKETIEQEKQAGES; not fully specified; Thymosin beta-4; UniProt P62328 2-44, looked up) [Tβ4, synthetic Tβ4 provided by RegeneRx]
- effect on the transformation of endocardial cells to mesenchymal cells in the collagen gel assay: markedly enhances the transformation
